Test results taken from paper PMC7031696 (Cell chemical biology, 2019).
Read-outs that look alike come from different tables or passages of the source.

Experiments:
[1] = test system: Plasmodium falciparum 3D7-A10 parasites; assay: Stage specificity assay (8-h exposure of synchronized stages, IC50^8h); format: cell-based; conditions: for IC50: Plasmodium falciparum
[2] = test system: asynchronous 3D7-A10 parasite cultures; assay: Standard 72-h exposure asexual blood stage susceptibility assay (IC50^72h); format: cell-based, Plasmodium falciparum; conditions: Plasmodium falciparum, 3D7, 72 h, read-out: Overall (72hr assay) Mean IC50 (IC50^72h)
[3] = test system: 3D7-MR4 trophozoite parasite-infected RBCs; assay: Metabolomic profiling (hydrophilic metabolite changes, UHPLC-MS); format: cell-based, Plasmodium falciparum
[4] = 1.5 h, 500 μM, pH 7.4
[5] = test system: 3D7-MR4 trophozoite parasite-infected RBCs; conditions: 10 × IC50^72h; ref Allman et al., 2016; cited from earlier work

CCCN(CCC)CC(O)COc1ccccc1C(=O)Nc1ccccc1 (centres unmarked) [MMV006455]
Ratio lowest IC50 8hr/IC50 72hr ([1]; 3D7-A10): 1.0
killing in stage specificity assay ([1]; 8-h exposures, survival curves): incomplete killing at all asexual blood stages
IC50 ([1]; 3D7, read-out: Early rings IC50 (IC50^8h), 8-h exposure 0–8 hr, bound given in μM): > 12.5 µM
IC50 ([1]; 3D7, read-out: Early trophozoites Mean IC50 (IC50^8h), 8-h exposure 16–24 hr, 3D7-A10, survival at 60 h): 0.441 µM
IC50 ([1]; 3D7, read-out: Late rings IC50 (IC50^8h), 8-h exposure 8–16 hr, bound given in μM): > 12.5 µM
IC50 ([1]; 3D7, read-out: Late trophozoites Mean IC50 (IC50^8h), 8-h exposure 24–32 hr, 3D7-A10, survival at 60 h): 0.45 µM
IC50 ([1]; 3D7, read-out: Schizonts Mean IC50 (IC50^8h), 8-h exposure 32–40 hr, 3D7-A10, survival at 60 h): 0.933 µM
Stage of peak activity (Figure 6) ([1]; period when the parasite was most susceptible (lowest IC50^8h)): trophozoites
Peak Activity (Table S1) ([1]; stage(s) with the lowest IC50^8h): Trophs
IC50 [2]: 439 nM
Log2(fold changes) 3-phosphoglycerate ([3]; metabolite 3-phosphoglycerate, log2 fold change): 0.4787
Log2(fold changes) 4-Pyridoxic acid ([3]; metabolite 4-Pyridoxic acid, log2 fold change): -0.2918
Log2(fold changes) 4-aminobutyrate ([3]; metabolite 4-aminobutyrate, log2 fold change): 0.4559
Log2(fold changes) 4-phosphopantetheine ([3]; metabolite 4-phosphopantetheine, log2 fold change): 0.0000
Log2(fold changes) 4-phosphopantothenate ([3]; metabolite 4-phosphopantothenate, log2 fold change): 0.3730
Log2(fold changes) 5-aminopentanoic acid ([3]; metabolite 5-aminopentanoic acid, log2 fold change): 0.0000
Log2(fold changes) 5-methyl-THF ([3]; metabolite 5-methyl-THF, log2 fold change): 0.0000
Log2(fold changes) 5-phosphoribosyl-1-pyrophosphate ([3]; metabolite 5-phosphoribosyl-1-pyrophosphate, log2 fold change): -0.9177
Log2(fold changes) 6-phospho-D-gluconate ([3]; metabolite 6-phospho-D-gluconate, log2 fold change): 0.4580
Log2(fold change) HVDD ([3]; metabolite HVDD): 0.0000
Log2(fold change) Hydroxyisocaproic acid ([3]; metabolite Hydroxyisocaproic acid): 0.0000
Log2(fold change) IDP ([3]; metabolite IDP): 0.0000
Log2(fold change) IMP ([3]; metabolite IMP): 0.8206
Log2(fold change) Inositol ([3]; metabolite Inositol): 0.0000
Log2(fold change) Isopentyl-PP ([3]; metabolite Isopentyl-PP): 0.0000
Log2(fold change) L-arginino-succinate ([3]; metabolite L-arginino-succinate): 0.0000
Log2(fold change) LD ([3]; metabolite LD): -0.4790
Log2(fold change) Myristoyl/tetradecanoyl-CoA ([3]; metabolite Myristoyl/tetradecanoyl-CoA): 0.0000
Log2(fold change) N-Acetyl-L-alanine ([3]; metabolite N-Acetyl-L-alanine): -0.7708
Log2(fold change) N-acetyl-L-ornithine ([3]; metabolite N-acetyl-L-ornithine): -1.4120
Log2(fold change) N-acetyl-glucosamine-1/6-phosphate ([3]; metabolite N-acetyl-glucosamine-1/6-phosphate): 1.1792
Log2(fold change) N-acetyl-glutamate ([3]; metabolite N-acetyl-glutamate): 0.9055
Log2(fold change) N-acetyl-glutamine ([3]; metabolite N-acetyl-glutamine): -0.4062
Log2(fold change) N-carbamoyl-L-aspartate ([3]; metabolite N-carbamoyl-L-aspartate): -1.3580
Log2(fold change) NAD+ ([3]; metabolite NAD+): 0.6496
Log2(fold change) NADH ([3]; metabolite NADH): -0.2919
Log2(fold change) NADP+ ([3]; metabolite NADP+): 1.1032
Log2(fold change) NADPH ([3]; metabolite NADPH): 1.2448
Log2(fold change) O-acetyl-L-serine ([3]; metabolite O-acetyl-L-serine): 0.0000
Log2(fold change) Octoluse 8/1P ([3]; metabolite Octoluse 8/1P): -0.0556
Log2(fold change) Octoluse Bisphosphate ([3]; metabolite Octoluse Bisphosphate): 0.1196
Log2(fold change) PD ([3]; metabolite PD): -1.7411
Log2(fold change) PE ([3]; metabolite PE): 2.1593
Log2(fold change) PEE ([3]; metabolite PEE): -6.2592
Log2(fold change) PEEK ([3]; metabolite PEEK): -3.5426
Log2(fold change) PVNF ([3]; metabolite PVNF): -1.5028
Log2(fold change) Pyroglutamic acid ([3]; metabolite Pyroglutamic acid): -0.5503
Log2(fold change) Pyrophosphate ([3]; metabolite Pyrophosphate): -0.6263
Log2(fold change) Ribose-5-phosphate ([3]; metabolite Ribose-5-phosphate): 0.0000
Log2(fold change) S-adenosyl-L-homocysteine ([3]; metabolite S-adenosyl-L-homocysteine): 0.2802
Log2(fold change) S-adenosyl-L-methioninamine ([3]; metabolite S-adenosyl-L-methioninamine): 0.0000
Log2(fold change) S-adenosyl-L-methionine ([3]; metabolite S-adenosyl-L-methionine): 0.0000
Log2(fold change) S-methyl-5'-thioadenosine ([3]; metabolite S-methyl-5'-thioadenosine): 1.5238
Log2(fold change) SD ([3]; metabolite SD): -2.2607
Log2(fold change) SDL ([3]; metabolite SDL): 0.0000
Log2(fold change) SID ([3]; metabolite SID): 0.0000
Log2(fold change) Sedoheptulose bisphosphate ([3]; metabolite Sedoheptulose bisphosphate): 0.2316
Log2(fold change) Thiamine pyrophosphate ([3]; metabolite Thiamine pyrophosphate): 0.0000
Log2(fold changes) UDP-D-glucose ([3]; metabolite UDP-D-glucose, log2 fold change): 0.1600
Log2(fold changes) UDP-D-glucuronate ([3]; metabolite UDP-D-glucuronate, log2 fold change): -0.0808
Log2(fold changes) UDP-N-acetyl-glucosamine ([3]; metabolite UDP-N-acetyl-glucosamine, log2 fold change): 0.3510
Log2(fold changes) UDP ([3]; metabolite UDP, log2 fold change): 0.8505
Log2(fold changes) UMP ([3]; metabolite UMP, log2 fold change): -0.5223
Log2(fold changes) UTP ([3]; metabolite UTP, log2 fold change): -1.8892
Log2(fold change) hydroxyphenylpyruvate ([3]; metabolite hydroxyphenylpyruvate): 0.0000
Log2(fold change) hydroxyproline/Aminolevulinate ([3]; metabolite hydroxyproline/Aminolevulinate): 0.0000
Log2(fold change) hypoxanthine ([3]; metabolite hypoxanthine): 0.1926
Log2(fold change) indole ([3]; metabolite indole): -0.2645
Log2(fold change) inosine ([3]; metabolite inosine): 0.3717
Log2(fold change) isoleucine ([3]; metabolite isoleucine): 0.0000
Log2(fold change) lactate ([3]; metabolite lactate): 1.3382
Log2(fold change) leucine ([3]; metabolite leucine): 0.0000
Log2(fold change) lysine ([3]; metabolite lysine): 0.0000
Log2(fold change) malate ([3]; metabolite malate): 1.2603
Log2(fold change) maleic acid ([3]; metabolite maleic acid): 0.0000
Log2(fold change) methionine ([3]; metabolite methionine): 0.0000
Log2(fold change) myo-inositol ([3]; metabolite myo-inositol): 3.3468
Log2(fold change) nicotinamide mononucleotide ([3]; metabolite nicotinamide mononucleotide): 0.0000
Log2(fold change) nicotinate ([3]; metabolite nicotinate): 0.0981
Log2(fold change) ornithine ([3]; metabolite ornithine): -0.2237
Log2(fold change) orotate ([3]; metabolite orotate): -1.3257
Log2(fold change) orotidine-5'-phosphate ([3]; metabolite orotidine-5'-phosphate): 0.0000
Log2(fold change) oxaloacetate ([3]; metabolite oxaloacetate): 0.0000
Log2(fold change) p-aminobenzoate ([3]; metabolite p-aminobenzoate): 0.0000
Log2(fold change) p-hydroxybenzoate ([3]; metabolite p-hydroxybenzoate): 0.4381
Log2(fold change) pantothenate ([3]; metabolite pantothenate): 0.0000
Log2(fold change) phenylalanine ([3]; metabolite phenylalanine): 0.0000
Log2(fold change) phenylpyruvate ([3]; metabolite phenylpyruvate): 0.1142
Log2(fold change) phosphoenolpyruvate ([3]; metabolite phosphoenolpyruvate): 0.0121
Log2(fold change) prephenate ([3]; metabolite prephenate): 0.0000
Log2(fold change) proline ([3]; metabolite proline): 0.0000
Log2(fold change) pyridoxine ([3]; metabolite pyridoxine): 0.0000
Log2(fold change) pyruvate ([3]; metabolite pyruvate): 0.4670
Log2(fold change) riboflavin ([3]; metabolite riboflavin): 0.0000
Log2(fold change) ribose ([3]; metabolite ribose): 0.0000
Log2(fold change) ribose-phosphate ([3]; metabolite ribose-phosphate): -0.0481
Log2(fold change) ribulose-5-phosphate ([3]; metabolite ribulose-5-phosphate): 0.0000
Log2(fold change) serine ([3]; metabolite serine): 0.0000
Log2(fold change) sn-glycerol-3-phosphate ([3]; metabolite sn-glycerol-3-phosphate): -0.3619
Log2(fold change) succinate/Methylmalonic acid ([3]; metabolite succinate/Methylmalonic acid): -0.7549
Log2(fold change) succinyl-CoA/methylmalonyl-CoA ([3]; metabolite succinyl-CoA/methylmalonyl-CoA): 0.0000
Log2(fold change) taurine ([3]; metabolite taurine): 0.0000
Log2(fold change) thiamine ([3]; metabolite thiamine): 0.0000
Log2(fold change) threonine/homoserine ([3]; metabolite threonine/homoserine): 0.0000
Log2(fold change) thymidine ([3]; metabolite thymidine): -0.5446
Log2(fold changes) thymine ([3]; metabolite thymine, log2 fold change): 3.4235
Log2(fold changes) trehalose-6-Phosphate ([3]; metabolite trehalose-6-Phosphate, log2 fold change): 0.0000
Log2(fold changes) tryptophan ([3]; metabolite tryptophan, log2 fold change): 0.0000
Log2(fold changes) tyrosine ([3]; metabolite tyrosine, log2 fold change): 0.0000
Log2(fold changes) uridine ([3]; metabolite uridine, log2 fold change): 0.2304
Ratio fil./std. (absorbance filtrate/standard) [4]: 1.00
levels of cAMP [5]: decreased
levels of the deoxyribonucleotides dAMP and dTMP [5]: increased
peptide levels (hemoglobin catabolism signature) [5]: decreased peptide levels
solubility at 1.5 h (physchem; pH 7.4): > 100 µM
solubility at 1.5 h (physchem; pH 7.4, aqueous buffer, kinetic from dmso stock): ≥ 500 µM
